Measurements: patent US20210355129A1, “NOVEL UREA 6,7-DIHYDRO-4H-PYRAZOLO[1,5-A]PYRAZINES ACTIVE AGAINST THE HEPATITIS B VIRUS (HBV)” (AICURIS GMBH & CO. KG, priority 2018, published 2021)

How the values were obtained:
[1] = Cell viability assay (AlamarBlue); format: cell-based; conditions: human, HepAD38 cells in the presence of 0.3 μg/ml tetracycline, six days incubation
Protocol: Using the AlamarBlue viability assay cytotoxicity was evaluated in HepAD38 cells in the presence of 0.3 μg/ml tetracycline, which blocks the expression of the HBV genome. Assay condition and plate layout were in analogy to the anti-HBV assay, however other controls were used. On each assay plate six wells containing untreated HepAD38 cells were used as the 100% viability control, and six wells filled with assay medium only were used as 0% viability control. In addition, a geometric concentration series of cycloheximide starting at 60 μM final assay concentration was used as positive control in each experiment. After six days incubation period Alamar Blue Presto cell viability reagent (ThermoFisher, Dreieich) was added in 1/11 dilution to each well of the assay plate. After an incubation for 30 to 45 min at 37° C. the fluorescence signal, which is proportional to the number of living cells, was read using a Tecan Spectrafluor Plus plate reader with an excitation filter 550 nm and emission filter 595 nm, respectively. […] Mean EC50 and CC50 values were used to calculate the selectivity index (SI=CC50/EC50) for each test compound.

HBV = assay: Determination of HBV DNA from the supernatants of HepAD38 cells (anti-HBV activity); conditions: Hepatitis B virus, HePAD38, 144 h, read-out: Cell Activity

| SMILES | CC50 at 6 days [1] | EC50 (HBV) |
| --- | --- | --- |
| COCC1(N(C)C(=O)c2cnn3c2CN(C(=O)Nc2ccc(F)c(Cl)c2)C(C)C3)CC1 (stereo not shown) [Example 1, N5-(3-chloro-4-fluorophenyl)-N3-[1-(methoxymethyl)cyclopropyl]-N3,6-dimethyl-4H,5H,6H,7H-pyrazolo[1,5-a]pyrazine-3,5-dicarboxamide] | > 10 µM | < 1 µM |
| CC(C)OCC1(N(C)C(=O)c2cnn3c2CN(C(=O)Nc2ccc(F)c(Cl)c2)CC3)CC1 [Example 2, N5-(3-chloro-4-fluorophenyl)-N3-methyl-N3-{1-[(propan-2-yloxy)methyl]cyclopropyl}-4H,5H,6H,7H-pyrazolo[1,5-a]pyrazine-3,5-dicarboxamide] | > 10 µM | < 1 µM |
| CCOCC1(N(C)C(=O)c2cnn3c2CN(C(=O)Nc2ccc(F)c(Cl)c2)CC3)CC1 [Example 3, N5-(3-chloro-4-fluorophenyl)-N3-[1-(ethoxymethyl)cyclopropyl]-N3-methyl-4H,5H,6H,7H-pyrazolo[1,5-a]pyrazine-3,5-dicarboxamide] | > 10 µM | < 1 µM |
| CN(C(=O)c1cnn2c1CN(C(=O)Nc1ccc(F)c(Cl)c1)CC2)C1(COC(F)F)CC1 [Example 4, N5-(3-chloro-4-fluorophenyl)-N3-{1-[(difluoromethoxy)methyl]cyclopropyl}-N3-methyl-4H,5H,6H,7H-pyrazolo[1,5-a]pyrazine-3,5-dicarboxamide] | > 10 µM | < 1 µM |
| O=C(Nc1ccc(F)c(Cl)c1)N1CCn2ncc(C(=O)N3CC(F)(F)CC34CC4)c2C1 [Example 5, N-(3-chloro-4-fluorophenyl)-3-{6,6-difluoro-4-azaspiro[2.4]heptane-4-carbonyl}-4H,5H,6H,7H-pyrazolo[1,5-a]pyrazine-5-carboxamide] | > 10 µM | < 1 µM |
| CC1Cn2ncc(C(=O)N(C)C3(COC(F)F)CC3)c2CN1C(=O)Nc1ccc(F)c(Cl)c1 (stereo not shown) [Example 6, N5-(3-chloro-4-fluorophenyl)-N3-{1-[(difluoromethoxy)methyl]cyclopropyl}-N3,6-dimethyl-4H,5H,6H,7H-pyrazolo[1,5-a]pyrazine-3,5-dicarboxamide] | > 10 µM | < 1 µM |
| CN(C(=O)c1cnn2c1CN(C(=O)Nc1ccc(F)c(Cl)c1)CC2)C1(c2ccncc2)CC1 [Example 7, N5-(3-chloro-4-fluorophenyl)-N3-methyl-N3-[1-(pyridin-4-yl)cyclopropyl]-4H,5H,6H,7H-pyrazolo[1,5-a]pyrazine-3,5-dicarboxamide] | > 10 µM | < 1 µM |
| CN(C(=O)c1cnn2c1CN(C(=O)Nc1ccc(F)c(Cl)c1)CC2)C1(c2ncccn2)CC1 [Example 8, N5-(3-chloro-4-fluorophenyl)-N3-methyl-N3-[1-(pyrimidin-2-yl)cyclopropyl]-4H,5H,6H,7H-pyrazolo[1,5-a]pyrazine-3,5-dicarboxamide] | > 10 µM | < 1 µM |
| CN(C(=O)c1cnn2c1CN(C(=O)Nc1ccc(F)c(Cl)c1)CC2)C1(CO)CC1 [Example 9, N5-(3-chloro-4-fluorophenyl)-N3-[1-(hydroxymethyl)cyclopropyl]-N3-methyl-4H,5H,6H,7H-pyrazolo[1,5-a]pyrazine-3,5-dicarboxamide] | > 10 µM | < 1 µM |
| O=C(Nc1ccc(F)c(Cl)c1)N1CCn2ncc(C(=O)N(CCO)C3(CO)CC3)c2C1 [Example 10, N5-(3-chloro-4-fluorophenyl)-N3-(2-hydroxyethyl)-N3-[1-(hydroxymethyl)cyclopropyl]-4H,5H,6H,7H-pyrazol [1,5-a]pyrazine-3,5-dicarboxamide] | > 10 µM | < 1 µM |
| O=C(Nc1ccc(F)c(Cl)c1)N1CCn2ncc(C(=O)N3CCCOCC34CC4)c2C1 [Example 11, N-(3-chloro-4-fluorophenyl) -3-{8-oxa-4-azaspiro[2.6]nonane-4-carbonyl}-4H,5H,6H,7H-pyrazolo[1,5-a]pyrazine-5-carboxamide] | > 10 µM | < 1 µM |
| O=C(Nc1ccc(F)c(Cl)c1)N1CCn2ncc(C(=O)N3CCOCCC34CC4)c2C1 [Example 12, N-(3-chloro-4-fluorophenyl)-3-{7-oxa-4-azaspiro[2.6]nonane-4-carbonyl}-4H,5H,6H,7H-pyrazolo[1,5-a]pyrazine-5-carboxamide] | > 10 µM | < 1 µM |
| CN(C(=O)c1cnn2c1CN(C(=O)Nc1ccc(F)c(Cl)c1)CC2)C1(CNCC(F)(F)F)CC1 [Example 13, N5-(3-chloro-4-fluorophenyl)-N3-methyl-N3-(1-{[(2,2,2-trifluoroethyl)amino]methyl}cyclopropyl)-4H,5H,6H,7H-pyrazolo[1,5-a]pyrazine-3,5-dicarboxamide] | > 10 µM | < 1 µM |
| CN(C(=O)c1cnn2c1CN(C(=O)Nc1ccc(F)c(Cl)c1)CC2)C1(CCOC(F)F)CCC1 [Example 14, N5-(3-chloro-4-fluorophenyl)-N3-{1-[2-(difluoromethoxy)ethyl]cyclobutyl}-N3-methyl-4H,5H,6H,7H-pyrazolo[1,5-a]pyrazine-3,5-dicarboxamide] | > 10 µM | < 1 µM |
| CN(C(=O)c1cnn2c1CN(C(=O)Nc1ccc(F)c(Cl)c1)CC2)C1(CCOC(F)F)CCCC1 [Example 15, N5-(3-chloro-4-fluorophenyl) -N3-{1-[2-(difluoromethoxy)ethyl]cyclopentyl}-N3-methyl-4H,5H,6H,7H -pyrazolo [1,5-a]pyrazine-3,5-dicarboxamide] | > 10 µM | < 1 µM |
| CN(C(=O)c1cnn2c1CN(C(=O)Nc1ccc(F)c(Cl)c1)CC2)C1(CCOC(F)F)CCOCC1 [Example 16, N5-(3-chloro-4-fluorophenyl)-N3-{4-[2-(difluoromethoxy)ethyl]oxan-4-yl}-N3-methyl-4H,5H,6H,7H-pyrazolo[1,5-a]pyrazine-3,5-dicarboxamide] | > 10 µM | < 1 µM |
| CC1Cn2ncc(C(=O)N(C)C3CC3)c2CN1C(=O)Nc1ccc(F)c(Cl)c1 (stereo not shown) [Example 17, N5-(3-chloro-4-fluorophenyl)-N3-cyclopropyl-N3,6-dimethyl-4H,5H,6H,7H -pyrazolo[1,5-a]pyrazine-3,5-dicarboxamide] | > 10 µM | < 1 µM |
